Laboratory results published in patent US5512269A, “Method of treating retained pulmonary secretions” (priority 1993, dated 1996).

Assays:
[1] = system: normal airway epithelium; assay: Ussing chamber short circuit current (Isc) Cl- secretory response, normal airway epithelium primary cultures; format: cell-based, human
[2] = system: sheep airway surface liquid; details: sheep model, W. Mentz et al.; cited from earlier work
[3] = system: Mycobacterium tuberculosis 57778; format: cell-based; details: for susceptibility of strain 57778 to drug: streptomycin 6 μg/ml, isoniazid 0.2 μg/ml, rifampin 2 μg/ml, ethambutol 7.5 μg/ml
[4] = system: Mycobacterium tuberculosis 63169; format: cell-based; details: for susceptibility of strain 63169 to drug: streptomycin 6 μg/ml, isoniazid 0.2 μg/ml, rifampin 2 μg/ml, ethambutol 7.5 μg/ml
[5] = system: Mycobacterium tuberculosis 65021; format: cell-based; details: for susceptibility of strain 65021 to drug: streptomycin 6 μg/ml, isoniazid 0.2 μg/ml, rifampin 2 μg/ml, ethambutol 7.5 μg/ml
[6] = system: Mycobacterium tuberculosis drug sensitive laboratory strain; format: cell-based; details: for susceptibility of drug-sensitive laboratory strain to drug: streptomycin 6 μg/ml, isoniazid 0.2 μg/ml, rifampin 2 μg/ml, ethambutol 7.5 μg/ml
[7] = system: CF airway epithelium; details: 10^-6 M
Source text: 1. Ussing Chamber Studies: The Cl^- secretory response to stimulation of normal and CF airway epithelium was studied under short circuit (Isc) conditions employing tissues mounted in Ussing chambers. Ussing chambers are well known in the art and the manner of their use in the present example would be readily apparent to one skilled in the art.

[8] = system: CFT43 cell line (intracellular cAMP); details: CFT43 cells, duramycin stimulation
Source text: (§1) 4. Mechanisms of Action: Preliminary studies were also done investigating possible mechanisms of action.

[9] = system: CFT43 cell line (phospholipase C, inositol phosphates); details: CFT43 cells, duramycin stimulation
Source text: as §1

[10] = system: canine trachea airway surface liquid; details: dog
Method: 1. The Animal Model: The model developed employed 30 kg male dogs that were anesthetized with intravenous pentobarbital and maintained on a intravenous infusion of normal saline at 75 cc/hour. The dogs were intubated. Ventilatory support was provided by a Harvard™ piston pump. Adequate ventilation and oxygenation were documented by arterial blood gas studies. Peak airway pressures (PAP) were measured and continuous monitoring of hemoglobin saturation was accomplished by pulse oximetry.
Drug and vehicle were delivered through the endotracheal tube. The drug was nebulized employing a Pulmo-Aid™ Compressor and a DeVilbiss™ nebulizer. The drug (50 μM; 3 ml) in a saline vehicle or the saline vehicle alone (control) was nebulized for 6 minutes during which 0.7 ml thereof was delivered to the animal. […] After 6 minutes, a clean and dry nebulizer was exchanged for the test nebulizer containing the drug or vehicle. The investigators were blinded as to whether drug or vehicle was given.
2. Measurements of airway fluid: Airway liquid measurements were made by applying dry preweighed filter paper to the cartilaginous portions of the airway for 20 seconds. This was accomplished employing transbronchial biopsy forceps to grasp the papers. The forceps and papers were stored in plastic catheters. Sampling the airway liquid was accomplished by first inserting the bronchoscope through the endotracheal tube. Care was taken not to allow contact between mucosa and the bronchoscope. The catheter containing the biopsy forceps and filter papers was introduced into the airway lumen through the channel in the bronchoscope. The biopsy forceps were then pushed out of the catheter and the filter papers gently applied to the mucosa. After 20 seconds the biopsy forceps and filter papers were pulled back into the catheter and removed through the bronchoscope for weighing. The filter papers were accessed for weighing by again pushing the forceps holding the filter paper out of the catheter. In order to account for evaporative losses from the filter papers when exposed to room air, the time required to place the papers on the scales and perform the initial weighing was recorded. Three subsequent weighings over time were then made. A regression line was calculated. The weight of the filter papers at time zero, that is when they were maximally wet, was defined as the time when the filter papers were pushed out of the catheter after having been applied to the airway mucosa. The amount of fluid on the filter paper was taken as the difference between the dry weight of the papers and their weight at time zero. Each set of samples to be compared were further corrected for differences in the initial weight of the dry filter papers.
The goal of the first protocol was to study the effects on airway surfaces liquid of (1) repeatedly sampling the airway, and (2) nebulizing the normal saline vehicle.
Protocol 1 required, immediately prior to conducting the test studies, weighing and loading the filter papers into catheters. Ten separate catheter-forceps-filter paper set-ups were available. Ten measurements of airway liquid were then made in different areas of the trachea over a thirty-minute period, with measurements made at three minute intervals. The catheters were then reloaded and the saline vehicle nebulized onto the airway. Ten more measurements of airway surface liquid were then made over another thirty minute period.
Protocol 2 required sampling the airway every four minutes to obtain 30 measurements of airway liquid. This required reloading the 10 catheters twice during each experiment. Each reloading required 20 minutes. This protocol allowed the airway to be sampled over 160 minutes. Drug and vehicle administration were separated by one week in any one animal.

In the case of `Nc1ncnc2c1ncn2[C@@H]1O[C@H](COP(=O)(O)OP(=O)(O)OP(=O)(O)O)[C@@H](O)[C@H]1O` [ATP, reference compound], the “time course of Cl- secretory response (Isc)” value ([1]; comparison agonist) is reported as “rapid onset of action and a rapid return to the baseline current”.
In the case of `N=C(N)NC(=O)c1nc(Cl)c(N)nc1N` [amiloride], the “increase in airway fluid after amiloride treatment” value [2] is listed as ~50%.
In the case of `CC[C@@H](CO)NCCN[C@@H](CC)CO` [ethambutol], the “susceptibility of strain 57778 to drug” value [3] is reported as “sensitive”, the “susceptibility of strain 63169 to drug” value [4] is reported as “sensitive” and the “susceptibility of strain 65021 to drug” value [5] is reported as “partially resistant”. The “susceptibility of drug-sensitive laboratory strain to drug” value [6] was “sensitive”.
With `NNC(=O)c1ccncc1` [isoniazid] the “susceptibility of strain 57778 to drug” value [3] was “resistant”, the “susceptibility of strain 63169 to drug” value [4] was “resistant” and the “susceptibility of strain 65021 to drug” value [5] was “resistant”. For the same compound, the “susceptibility of drug-sensitive laboratory strain to drug” value [6] was “sensitive”.
In the case of `CO[C@H]1/C=C/O[C@@]2(C)Oc3c(C)c(O)c4c(O)c(c(/C=N/N5CCN(C)CC5)c(O)c4c3C2=O)NC(=O)/C(C)=C\C=C\[C@H](C)[C@H](O)[C@@H](C)[C@@H](O)[C@@H](C)[C@H](OC(C)=O)[C@@H]1C` [rifampin], the “susceptibility of strain 57778 to drug” value [3] is reported as “resistant”, the “susceptibility of strain 63169 to drug” value [4] is reported as “resistant” and the “susceptibility of strain 65021 to drug” value [5] is reported as “resistant”. The “susceptibility of drug-sensitive laboratory strain to drug” value [6] was “sensitive”.
For `[H]/N=C(/N)N[C@H]1[C@H](O)[C@@H](O)[C@H](O[C@@H]2O[C@@H](C)[C@](O)(C=O)[C@H]2O[C@@H]2O[C@@H](CO)[C@H](O)[C@@H](O)[C@@H]2NC)[C@@H](N/C(N)=N\[H])[C@@H]1O` [streptomycin], the “susceptibility of strain 57778 to drug” value [3] was “resistant”, the “susceptibility of strain 63169 to drug” value [4] was “sensitive” and the “susceptibility of strain 65021 to drug” value [5] was “resistant”. For the same compound, the “susceptibility of drug-sensitive laboratory strain to drug” value [6] was “sensitive”.
In the case of duramycin, the “peak Isc (Cl- current) after duramycin” value ([1]; 10^-6 M duramycin, normal tissues after amiloride and forskolin (10 μM), baseline 20 μA/cm^2 after amiloride) is reported as 50 μA/cm^2, the “Cl- secretory response in normal tissue” value ([1]; 10^-6 M, seven normal tissues) is reported as “significant Cl^- secretory response” and the “Isc response to duramycin, control bathing solution” value ([1]; 10^-6 M, solution containing both Na+ and Cl-) is reported as “responded by increasing the Isc”. The “Isc response to duramycin, Cl- free bathing solution” value ([1]; 10^-6 M, solution without Cl-) was “markedly attenuated response”, the “Isc response to duramycin, Na+ free bathing solution” value ([1]; 10^-6 M, solution without Na+) was “responded by increasing the Isc” and the “concentration giving maximal response” value ([1]; dose response study) was 10^-6 M. For the same compound, the ED50 ([1]; dose response study, Isc response) was 300 nM, the “duration of increase in Isc (Cl- secretory response)” value ([1]; in some instances) was > 1 h and the “Cl- secretory response (change in Isc) in CF tissue relative to normal tissue” value [7] was “approximately twice”. The “Cl- secretory response in CF tissue” value ([7]; five CF tissues) was “significant Cl^- secretory response”, the “intracellular cAMP levels” value [8] was “did not cause intracellular cAMP levels to rise” and the “inositol phosphates (IPs) produced” value [9] was “no detectable amounts of IPs”. The “increase in amount of fluid recovered over baseline, Protocol 2” value ([10]; 160 minutes, vehicle first then duramycin one week later) was “several-fold increase”, the “return of airway surface liquid to baseline” value ([10]; Protocol 1) was “did not return to baseline even two hours following its administration” and the “surface airway liquid after vehicle one week following duramycin” value ([10]; Protocol 2, duramycin given first) was “remained elevated”. For the same compound, the “amount of fluid recovered from the airway, Protocol 1” value ([10]; nebulized duramycin, 30 minute measurement period) was “marked and sustained increase”, the “increase in airway surface liquid recovered compared to vehicle controls” value ([10]; vehicle first, p=0.0179 (paired), p=0.0335 (unpaired), n=6) was “significant” and the “average change in amount of fluid recovered” value ([10]; versus vehicle) was “doubling”. The “activity on growth (growth index over 12 days), strain 57778” value ([3]; 100 μM duramycin) was “equally as effective as ethambutol”, the “activity on growth (growth index over 12 days), strain 63169” value ([4]; 100 μM duramycin) was “approximately equal to that of the two drugs now known to be effective against this strain” and the “activity on growth (growth index over 12 days), strain 65021” value ([5]; 100 μM duramycin) was “significantly more activity against this strain than any of the four traditional anti-tuberculosis drugs tested”. For the same compound, the “activity on growth (growth index over 12 days), drug-sensitive laboratory strain” value ([6]; 100 μM duramycin) was “less active in vitro than streptomycin, isoniazid, rifampin, or ethambutol”.
